In patent US8703158B2, “Theobromine for the treatment of cough” (Biocopea Limited, priority 2009, dated 2014):

Legend:
[1] = observations of behaviour and health of dosed animals; conditions: codeine 25 mg/kg i.p.; reduction in movement in exposure chamber
Experimental: Guinea pigs were dosed intra-tracheally with theobromine or vehicle, orally with theobromine and intra-peronteneally with codeine. All pre-treatments were administered at t−30 min prior to citric acid exposure.

[2] = tested on: citric acid-induced cough responses; assay: citric acid-induced cough in guinea pigs (antitussive activity); type: in vivo, guinea pig; conditions: for mean number of citric acid-induced coughs / onset time to the first cough: 0.5 h pretreatment; for mean number of citric acid-induced coughs: vehicle 26±4
Experimental: The aim of this Example is to provide an assessment of the antitussive activity of intra-tracheally (i.t.) or orally dosed (p.o.) administered theobromine (3-30 mg/kg) compared to the positive control codeine (25 mg/kg, i.p.) against irritant-induced cough responses.
Thirty-six guinea pigs were randomly allocated to one of the six treatment groups (see Table 1) according to the blinding code.

Row | SMILES | behaviour of the animals (sedation) [1] | mean number of citric acid-induced coughs ([2]; codeine 25 mg/kg i.p., citric acid 1 M, 10 min exposure + 5 min recovery) [coughs] | onset time to the first cough ([2]; codeine 25 mg/kg i.p., vehicle 71±26 s) [s] | inhaled dose giving equivalent anti-tussive effect, as fraction of the oral dose ([2]; citric acid-induced cough model, inhaled (i.t.) versus oral) | mean number of citric acid-induced coughs ([2]; theobromine 10 mg/kg i.t.) [coughs] | onset time to the first cough ([2]; theobromine 30 mg/kg p.o., versus vehicle control (71±26 s)) | effect on the total number of coughs ([2]; theobromine 3-30 mg/kg i.t., local administration)
1 | COc1ccc2c3c1O[C@H]1[C@@H](O)C=C[C@H]4[C@@H](C2)N(C)CC[C@@]341 [codeine] | slight sedation | 5±1 | 337 ± 51 |  |  |  | 
2 | Cn1cnc2c1c(=O)[nH]c(=O)n2C [theobromine] |  |  |  | ⅓ | 10.33±2 | not significantly increased | significant dose-dependant effect
